Data taken from US20060178307A1, “Modulation of NMDA receptor currents via orexin receptor and/or CRF receptor” (priority 2005, published 2006).
Entries after “also recorded” stand apart in the source; their conditions may differ. Where no end group is shown, it is not given here.

What was measured:
[1] = system: NMDAR-mediated EPSCs in VTA dopamine neurons; experiment: Evoked NMDAR-mediated EPSCs, whole-cell voltage clamp at +40 mV, VTA neurons in midbrain slices; format: cell-based, rat; details: for effect on potentiation of NMDAR-mediated EPSCs by orexin A: inhibitor 100 μM in patch pipette; for effect on potentiation of NMDAR-mediated EPSCs by 100 nM orexin A: inhibitor 1 μM in patch pipette
Description: Excitatory postsynaptic currents (EPSCs) were recorded from VTA neurons in rat midbrain slices. EPSCs were evoked while holding neurons in voltage clamp at +40 mV. Measurements were taken 20 ms after the stimulus artifact, a time point at which the glutamatergic EPSC is mediated purely by NMDARs.
The patch pipette was loaded with the PLC inhibitor, U-73122 (1 μM, FIG. 2A, C, n=6) or the PKC inhibitor, chelerythrin (1 μM, FIG. 1A, B, n=6). […] Next, the protein kinase A inhibitor, PKI (20 μM, FIG. 2A, F, n=8) or Rp-cAMPs, a blocker of cAMP (100 μM, FIG. 2A, E, n=5) was added to the patch pipette.
Activation of PKC is implicated in NMDAR-dependent long-term potentiation (Malinow et al., 1989) and it modulates NMDAR trafficking to the membrane (Lan et al., 2001; Scott et al., 2001; Fong et al., 2002). NMDARs can translocate from intracellular or extrasynaptic pools to synaptic sites (Lan et al., 2001; Tovar and Westbrook, 2002). […] In a separate group of slices, orexin A (100 nM, n=6) was applied for 5 min during the washout period.
All of the electrophysiological recordings were performed in rats ranging from P21 to P30. Briefly, rats were anesthetized with halothane and sacrificed. Horizontal sections of the VTA ([…]) were prepared with a vibratome (Leica, Nussloch, Germany). Slices were placed in a holding chamber and allowed to recover for at least 1 hour before being placed in the recording chamber and superfused with bicarbonate-buffered solution (ACSF) saturated with 95% O2/5% CO2 and containing (in mM): 119 NaCl, 1.6 KCl, 1.0 NaH2PO4, 1.3 MgCl2, 2.5 CaCl2, 26.2 NaHCO3 and 11 glucose (at 32-34° C.). Picrotoxin (100 μM) was added to block GABAA receptor-mediated inhibitory postsynaptic currents. Cells were visualized using infrared differential interference contrast video microscopy. Whole-cell voltage clamp recordings were made using an Axopatch 1D amplifier (Axon Instruments, Union City, Calif.). Electrodes (2.8-4.0 MΩ) contained (in mM): 120 Cesium Methansulfonate, 20 HEPES, 0.4 EGTA, 2.8 NaCl, 5 TEA-Cl, 2.5 MgATP, and 0.25 NaGTP, pH 7.2-7.3 (270-285 mOsm). Series resistance (10-40 MΩ) and input resistance were monitored on-line with a 4-mV depolarizing step (50 ms) given just after every afferent stimulus. Dopaminergic VTA neurons were identified by the presence of a large Ih current (Lacey et al., 1990; Johnson and North, 1992) and, in some cases, tyrosine hydroxylase labeling. A bipolar stimulating electrode was placed 100-300 μm rostral to the recording electrode and was used to stimulate excitatory afferents at 0.1 Hz. Neurons were voltage-clamped at −70 mV and +40 mV to record AMPAR- and NMDAR-mediated EPSCs.

[2] = system: locomotor activity; experiment: Locomotor sensitization to cocaine, i.p. OXR1 antagonist, open field; format: in vivo, Sprague-Dawley rats; details: n=13
Description: To determine if orexin signaling plays a role in behavioral sensitization to cocaine, either the OXR1 antagonist SB 334867 (10 mg/kg, i.p.) or vehicle was injected 15 min prior to injecting cocaine (15 mg/kg, i.p) or saline (0.9%), and then the rats were placed in an open field chamber to measure locomotor activity for 1 hour each day for 5 days.
Therefore, to determine if expression of cocaine sensitization requires release of orexin acting at the OXR1 receptor, the OXR1 antagonist SB 334867 (10 mg/kg) was injected with cocaine (15 mg/kg) on day 6 into either cocaine-sensitized or saline-treated rats.
(§1) Male Sprague-Dawley Rats (P21-P30; Charles River, N.C.) were singly housed with food and water available ad libitum. A 12 hr light/dark cycle was used, with the lights on at 7:00 A.M. All cocaine injections and behavioral testing were performed during the light cycle for consecutive days. The four treatment groups consisted of rats given 5 daily i.p. injections of SB 334867 (10 mg/kg) 15 min preceding i.p. injection of cocaine (15 mg/kg) or saline (0.9% NaCl), or i.p. injections of vehicle (10% DMSO and 25% β-hydroxy cyclodextrin in saline) 15 min preceding i.p. injection of cocaine or saline. All animals were habituated to the photocell boxes (Med Associates, St. Albans, Vt.) for 2 hours prior to the start of the experiment. All animals were further habituated to the photocell boxes for 30 min prior to 60 min testing session. Locomotor activity was measured in 17″×17″ chambers lined with three 16-beam I/R arrays. A 50 ms scanning rate was used for measurement of beams broken. Distance traveled was measured using Open Field Activity Software (Med Associates, Inc) and analyzed for estimates of locomotion based on the movement of a given distance and resting delay (movement in a given period of time).

[3] = system: AMPAR/NMDAR ratio of EPSCs in VTA dopamine cells; experiment: AMPAR/NMDAR ratio in VTA slices 24 hr after 5-day in vivo treatment; parameters: species or system rat; details: cocaine 15 mg/kg, 5-day treatment, n=4
Description: The next study investigated whether orexin signaling in the VTA is required for the long-term plasticity associated with the development of behavioral sensitization. Long-term synaptic plasticity at excitatory synapses on VTA neurons was examined 24 hr after a 5-day treatment of cocaine (15 mg/kg) or saline (0.9%), a time course shown to induce long-lasting locomotor sensitization to cocaine (Thomas et al., 2001), with or without the OXR1 antagonist, SB 334867 (10 mg/kg, FIG. 5). To assay for synaptic plasticity, the relative contributions of AMPARs and NMDARs to EPSCs recorded in VTA dopamine cells were compared. Consistent with the potentiation observed following acute and 7-day cocaine treatments (Borgland et al., 2004), 5-day treatment with cocaine potentiated the AMPAR/NMDAR ratio compared to saline controls (FIG. 5A, saline: 0.4±0.07, n=4; cocaine: 0.8±0.1, n=4, p<0.05). This potentiation of synaptic plasticity was blocked by 5-day treatment with the OXR1 antagonist, SB 334867, administered 15 min prior to cocaine or saline (FIG. 5A, saline+SB334867: 0.4±0.02, n=5 vs. cocaine+SB334867: 0.5±0.08, n=11, p>0.05). Since OXR1 antagonists block cocaine-mediated potentiation of the AMPAR/NMDAR ratio, orexin A may either facilitate cocaine-mediated synaptic plasticity or enhance synaptic transmission itself. A 5-min orexin A application was performed to determine whether this caused changes in AMPAR/NMDAR ratio either 15 min or 3-4 hours after application (FIG. 5B).
To calculate the AMPAR/NMDAR ratio, an average of 12 EPSCs at +40 mV was computed before and after application of the NMDAR blocker, AP5 (50 μM) for 5 min. NMDAR responses were calculated by subtracting the average response in the presence of AP5 (AMPAR only) from that seen in its absence; the peak of the AMPAR EPSC was divided by the peak of the NMDAR EPSC to yield an AMPAR/NMDAR ratio.
as §1, with “All animals were habituated to the photocell boxes (Med Associates, St. Albans, Vt.) for 2 hours prior to the start of the experiment. All animals were further habituated to the photocell boxes for 30 min prior to 60 min testing session.” left out, “A 50 ms scanning rate was used for measurement of beams broken.” left out

[4] = system: locomotor activity; experiment: Locomotor sensitization to cocaine, intra-VTA OXR1 antagonist, 7-day paradigm; format: in vivo, Sprague-Dawley rats; details: control animals: intra-VTA vehicle + cocaine 15 mg/kg
Description: Male Sprague-Dawley rats (250 grams) were implanted with bilateral cannulae directed at the VTA (AP, −5.2; ML, ±0.5, DV −8.0). Following recovery from surgery, animals were tested in a cocaine sensitization assay similar to that used for systemic administration of the OXR1 antagonist, but with two changes: a 7-day sensitization paradigm was used, and the OXR1 antagonist SB 334867 was microinjected directly into the VTA (6 μg/hemisphere in 300 nL solution composed of 10% DMSO in water). All other methods for habituation and data collection were identical to that described above. Rats were deeply anesthetized with pentobarbital, and perfused with a 10% formaldehyde solution. Brains were cryoprotected in 25% sucrose, 40 μm coronal sections were cut on a freezing microtome, and sections were mounted, dried and coverslipped. Injection sites were located under a light microscope and recorded on atlas figures adapted from Paxinos and Watson (1997).

[5] = system: NMDAR-mediated currents in VTA dopamine cells; experiment: CRF-related peptides on NMDAR-mediated currents at excitatory synapses onto VTA dopamine cells; format: cell-based; details: mammalian brain
[6] = system: AMPAR mEPSCs; experiment: AMPAR-mediated miniature EPSCs (mEPSCs) in VTA neurons; format: cell-based, rat; details: APV 50 μM 3 min prior and during orexin application
Description: Next, to investigate whether AMPAR function and/or number was modified with orexin A treatment, AMPAR-mediated miniature EPSCs (mEPSCs) were examined (a standard method for determining the locus of synaptic change). Compared to untreated neurons, orexin A (100 nM) caused a significant increase in both amplitude (FIG. 6C,D,F) and frequency (FIG. 6C,E,G) 3-4 hours after application (24±1.6 pA; 2.4±0.5 Hz; n=7 vs control: 13±1.3 pA; 0.93±0.16 Hz; n=7; FIG. 6A), but not at 15 min (15±1.7 pA; 0.9±0.1 Hz; n=[…], FIG. 6B).
AMPAR mEPSCs were recorded in cells voltage-clamped at −70 mV in lidocaine (500 μM), APV (50 μM) and sucrose (100 mM). NMDAR mEPSCs were recorded at −40 mV in Mg2+-free external solution with lidocaine (500 μM), glycine (20 μM), and CNQX (10 μM). mEPSCs were collected using Clampex (Axon Instruments) and analyzed using Mini Analysis Program (Synaptosoft). Detection criteria were set at >10 pA, <1 ms rise-time, and <3 ms decay-time for AMPAR mEPSCs and >10 pA, <1 ms rise-time, and <10 ms decay-time for NMDAR mEPSCs. mEPSC traces were recorded while sampling every 10 μs, the images were filtered at 5 kHz. Averaged mEPSCs were constructed using Mini Analysis Program (Synaptosoft).

C[C@H](NC(c1cccc2[nH]c(=O)c(=O)[nH]c12)P(=O)(O)O)c1ccc(Br)cc1 (stereo partly shown) [NVP-AAM077]
remaining current ([1]; NVP-AAM077 0.4 μM applied during peak increase induced by 100 nM orexin A, n=6): 87±11% | effect on expression of orexin A-mediated potentiation of NMDAR EPSCs ([1]; NVP-AAM077 0.4 μM applied during peak of potentiation): blocked; also recorded: reversed | effect on ability of 100 nM orexin A to potentiate NMDAR EPSCs ([1]; NVP-AAM077 0.4 μM pre-applied): significantly reduced | inhibition of NMDAR EPSCs ([1]; bath application 0.4 μM, n=6): 54±7%

O=C(O)C1NCCN(C(=O)c2ccc3c(ccc4ccccc43)c2)C1C(=O)O (stereo not shown) [PPDA, 1-(phenantrene-2carbonyl) piperazine-2,3-dicarboxylic acid]
additional inhibition of NMDAR EPSCs ([1]; 1 μM on top of NVP-AAM077 and ifenprodil): 10% | effect on orexin A (100 nM)-mediated NMDAR potentiation ([1]; PPDA 1 μM after co-application of NVP-AAM077 and ifenprodil): blocked | remaining current ([1]; PPDA 1 μM with NVP-AAM077 and ifenprodil, n=6): 14±2.2%

CC(C(O)c1ccc(O)cc1)N1CCC(Cc2ccccc2)CC1 (stereo not shown) [ifenprodil]
remaining current after application ([1]; bath-applied 3 μM): 71±6% | effect on orexin A-mediated potentiation of NMDAR EPSCs ([1]; ifenprodil 3 μM bath-applied): no significant effect; also recorded: not affected

COC(=O)[C@H]1[C@@H](OC(=O)c2ccccc2)C[C@@H]2CC[C@H]1N2C [cocaine]
distance traveled on day 5 ([2]; cocaine-only-treated rats, 15 mg/kg i.p.): 20347±5643 cm | locomotor activity on day 1 ([2]; cocaine-treated rats given vehicle): 5692±1579 cm | AMPAR/NMDAR ratio [3]: 0.8±0.1 | mean locomotor distance on day 7 [4]: 34162±4477 cm

ovine CRF: CRF form that does not bind CRF-BP (SQEPPISLDLTFHLLREVLEMTKADQLAQQAHSNRKLLDIA; ends and bridges not checked; UniProt P01142 148-188, looked up)
potentiation of NMDAR currents [5]: do not potentiate

Nc1ncnc2c1ncn2[C@@H]1O[C@@H]2CO[P@@](O)(=S)O[C@H]2[C@H]1O [Rp-cAMPs]
effect on potentiation of NMDAR-mediated EPSCs by orexin A ([1]; n=5): robust potentiation | effect on potentiation of NMDAR-mediated EPSCs by orexin A ([1]; n=5, listed as Rp-cAMPS): did not block

Urocortin II: peptide that does not bind CRF-BP (IVLSLDVPIGLLQILLEQARARAAREQATTNARILARVGHC; ends and bridges not checked; UniProt Q96RP3 72-112, looked up)
potentiation of NMDAR currents [5]: do not potentiate

Urocortin: may be the endogenous CRF-R2 ligand and also binds CRF-BP (DNPSLSIDLTFHLLRTLLELARTQSQRERAEQNRIIFDSV; ends and bridges not checked; UniProt P55089 83-122, looked up)
potentiation of NMDAR currents [5]: mimics CRF

N[C@H](CCCP(=O)(O)O)C(=O)O [APV, D (−)-2-Amino-5-phosphonopentanoic acid]
effect on orexin A-induced increase in AMPAR mEPSC amplitude at 3-4 hours [6]: significantly reduced; also recorded: blocked

COc1ccc2c(c[n+](C)c3c4cc5c(cc4ccc23)OCO5)c1OC [chelerythrin]
effect on potentiation of NMDAR-mediated EPSCs by 100 nM orexin A ([1]; n=6): completely blocked

[Zn+2] [Zn^2+]
inhibition of NMDAR EPSCs ([1]; 100 nM, n=6): 13±8% | inhibition of NMDAR EPSCs ([1]; 300 nM, n=5): 29±9% | effect on orexin A-mediated potentiation of NMDARs ([1]; Zn2+ 300 nM): significantly reduced; also recorded: mostly blocked

COc1ccc2c(c1)CC[C@@H]1[C@@H]2CC[C@]2(C)[C@@H](NCCCCCCN3C(=O)C=CC3=O)CC[C@@H]12 [U-73122]
effect on potentiation of NMDAR-mediated EPSCs by 100 nM orexin A ([1]; n=6): completely blocked | effect on potentiation of NMDAR-mediated EPSCs by 100 nM orexin A ([1]; n=6, listed as U73122): blocked
